Molecular target: Arginine--tRNA ligase (Staphylococcus aureus)
Test: Inhibitory activity against cognate Staphylococcus aureus Arginyl-tRNA synthetase

## N=C(N)NCCC[C@H](N)C(=O)NS(=O)(=O)OC[C@H]1O[C@@H](n2cnc3c(N)ncnc32)[C@H](O)[C@@H]1O [Aminoalkyl adenylate and aminoacyl sulfamate analogue]
  IC50: 4.5 nM

— BindingDB's records for doi:10.1016/s0960-894x(00)00360-7 (Smithkline Beecham Pharmaceuticals, 2000)
